Like-named read-outs stand apart in the source and are kept apart here.
Key:
[1] = molecular target: Human cytomegalovirus DNA polymerase (Human cytomegalovirus (strain AD169) (HHV-5) (Human herpesvirus 5), UniProt P08546); assay: CMV polymerase assay (AlphaLISA); type: biochemical; settings: HCMV polymerase 0.2 nM, 30 min pre-incubation, 60 minute at 37° C.
Method: (§1) Human cytomegalovirus and varicella zoster virus DNA polymerases were expressed via baculovirus vector in SF21 cells and purified. Heterodimeric nucleic acid substrate used in the herpesvirus polymerase reactions were generated by annealing a 59-mer template to a 17-mer digoxigenin-labeled primer. Polymerase (HCMV final concentration of 0.2 nM; VZV final concentration of 0.4 nM) was combined with an inhibitor compound or DMSO in assay buffer (10 mM HEPES, pH 7.5, 25 mM KCl, 25 mM NaCl, 5 mM MgCl2, 5% glycerol, 0.67 mg/ml bovine serum albumin, and 1 mM tris(2-carboxyethyl)phosphine)), and this mixture was pre-incubated for 30 minutes at room temperature in 384-well microtiter plates. The polymerization reaction was initiated by the addition of template/primer substrate (final concentration: 1.6 nM), and dNTPs (final concentration: 24 nM dCTP, 24 nMdGTP, 16 nM dATP, 16 nM dTTP, and 0.8 nM biotin-dUTP). After a 60 minute incubation period at 37° C., the reactions were terminated using quench buffer (25 mM HEPES pH 7.5, 100 mM NaCl, 0.25% Tween-20, 12 mM EDTA, and 1 mg/ml bovine serum albumin). Incorporation of biotinylated UTP was detected with 2.5-5 μg/mL anti-DIG AlphaLISA acceptor beads and 5-10 μg/mL streptavidin AlphaLISA donor beads (PerkinElmer). Compound effects were normalized to the window defined by the controls (DMSO only and pre-quenched wells), and were fit using a 4-parameter algorithm to report an IC50.

[2] = molecular target: varicella zoster virus DNA polymerase (Varicella-zoster virus (strain Dumas) (HHV-3) (Human herpesvirus 3), UniProt P09252); assay: VZV polymerase assay (AlphaLISA); type: biochemical; settings: VZV polymerase 0.4 nM, 30 min pre-incubation, 60 minute at 37° C.
Method: as §1

CMV = assay: Viral qPCR assay, CMV; type: cell-based; settings: infected cells, viral genome copies by qPCR normalized to PPIA, read-out: CMV Cell EC50
Method: (§2) MRC5 cells, Vero cells, and MeWo cells were obtained from ATCC, and were maintained at 37° C./5% CO2/90% relative humidity in Minimal Essential Medium with 10% fetal bovine serum, […] L-glutamine, 100 units/ml penicillin and 100 ug/ml streptomycin. Assay plates were prepared by dispensing compounds dissolved in DMSO into wells of 384 well collagen-coated plates using an ECHO acoustic dispenser. Each test compound was tested in a 10-point, serial 3-fold dilution. Controls included uninfected cells and infected cells treated only with DMSO. Assays were initiated by mixing selected cells, in suspension, with virus, and dispensing 50 μl/well infected cells to pre-plated compounds. Plates were incubated at 37° C./5% CO2/90% relative humidity for ˜72 hrs to permit genomic replication, and infected cells were lysed by the addition of an equal volume of lysis buffer (10 mM Tris-HCl, pH8, 50 mM KCl, 2 mM MgCl2, 0.45% NP-40, 0.45% Tween-20, and 100 µg/ml proteinase K). An aliquot of the lysate was then transferred to a 384-well PCR plate and incubated at 56° C. for 1 hour, and then at 95° C. for 10 minutes. Levels of the selected viral gene and of the cellular control, PPIA, were measured in separate 10 μl qPCR assays using TaqMan® Gene Expression Master Mix (Applied Biosystems), and an 7900HT Fast Real-Time PCR System with 384-Well Block Module. 7-point, serial 10-fold dilutions of a plasmid standard were run on each plate to generate a standard curve, and genome copies numbers were calculated by plotting experimental Ct onto linear regression of the standard curve. Viral genome copy numbers were normalized by cellular control copy number, and compound effects were normalized to the window defined by the controls. Calculated % effects were fit using a 4-parameter algorithm, and EC50 was reported.

HSV1 = assay: Viral qPCR assay, HSV1; type: cell-based; settings: infected cells, viral genome copies by qPCR normalized to PPIA, read-out: HSV1 Cell EC50
Method: as §2

HSV2 = assay: Viral qPCR assay, HSV2; type: cell-based; settings: infected cells, viral genome copies by qPCR normalized to PPIA, read-out: HSV2 Cell EC50
Method: as §2

**Q.** How did the IC50 [1] turn out when `CC(O)Cc1nc2ccn(Cc3ccc(Cl)cc3)c(=O)c2cc1O[C@H]1CCN2C(=O)OC[C@@H]2C1` (single isomer, unassigned) [Example 33] was run?
**A.** The IC50 was 0.0074 µM.

**Q.** And the IC50 [2]?
**A.** Its IC50 is 0.013 µM.

**Q.** And the EC50 (CMV; Human betaherpesvirus 5, 72 h)?
**A.** The EC50 was 0.156 µM.

**Q.** What about the EC50 (HSV1; Human alphaherpesvirus 1, 72 h) of the same molecule?
**A.** The EC50 was 0.266 µM.

**Q.** What about the EC50 (HSV2; Human alphaherpesvirus 2, 72 h) of the same molecule?
**A.** The EC50 was 0.234 µM.

**Q.** `C[C@@H]1CN(C2CCOC2)CCN1c1ccc2ncn(Cc3ccc(Cl)cc3)c(=O)c2c1` (single isomer, unassigned) [Example 44] was tested. Which IC50 [1] did it give?
**A.** Its IC50 is 0.077 µM.

**Q.** And the IC50 [2]?
**A.** The IC50 was 0.144 µM.

**Q.** And the EC50 (CMV; Human betaherpesvirus 5, 72 h)?
**A.** The EC50 was 0.521 µM.

**Q.** And the EC50 (HSV1; Human alphaherpesvirus 1, 72 h)?
**A.** Its EC50 is 1.46 µM.

**Q.** What about the EC50 (HSV2; Human alphaherpesvirus 2, 72 h) of the same molecule?
**A.** The EC50 was 1.25 µM.

**Q.** Which IC50 [1] does the source give for `CC1CN(C)CCC1(F)c1ccc2ncn(Cc3ccc(Cl)cc3)c(=O)c2c1` (single isomer, unassigned) [Example 47] here?
**A.** Its IC50 is 0.084 µM.

**Q.** And the IC50 [2]?
**A.** Its IC50 is 0.102 µM.

**Q.** What about the EC50 (CMV; Human betaherpesvirus 5, 72 h) of the same molecule?
**A.** The EC50 was 0.55 µM.

**Q.** And the EC50 (HSV1; Human alphaherpesvirus 1, 72 h)?
**A.** The EC50 was 1.58 µM.

**Q.** What about the EC50 (HSV2; Human alphaherpesvirus 2, 72 h) of the same molecule?
**A.** The EC50 was 1.37 µM.

**Q.** `Cc1nc2cc(C3CC(O)C3)c(O[C@H]3CCN4C(=O)OC[C@@H]4C3)cc2c(=O)n1Cc1ccc(Cl)cc1` (single isomer, unassigned) [Example 61] was tested. Which IC50 [1] did it give?
**A.** The IC50 was 0.0065 µM.

**Q.** What about the IC50 [2] of the same molecule?
**A.** Its IC50 is 0.011 µM.

**Q.** What about the EC50 (CMV; ~72 hrs) of the same molecule?
**A.** Its EC50 is 0.173 µM.

**Q.** And the EC50 (HSV1; ~72 hrs)?
**A.** Its EC50 is 0.25 µM.

**Q.** What about the EC50 (HSV2; ~72 hrs) of the same molecule?
**A.** Its EC50 is 0.202 µM.

**Q.** With `Cc1nc2cc(C3CC(O)C3)c(O[C@H]3CCN4C(=O)OC[C@@H]4C3)cc2c(=O)n1Cc1ccc(Cl)cc1` (single isomer, unassigned) [Example 62] as the molecule, how does the IC50 [1] read?
**A.** Its IC50 is 0.001 µM.

**Q.** And the IC50 [2]?
**A.** Its IC50 is 0.0048 µM.

**Q.** And the EC50 (CMV; ~72 hrs)?
**A.** The EC50 was 0.057 µM.

**Q.** What about the EC50 (HSV1; ~72 hrs) of the same molecule?
**A.** The EC50 was 0.113 µM.

**Q.** And the EC50 (HSV2; ~72 hrs)?
**A.** The EC50 was 0.057 µM.

**Q.** With `Cc1nc2cc(C3CC(C)(O)C3)c(O[C@H]3CCN4C(=O)OC[C@@H]4C3)cc2c(=O)n1Cc1ccc(Cl)cc1` (single isomer, unassigned) [Example 77] as the molecule, how does the IC50 [1] read?
**A.** The IC50 was 0.0031 µM.

**Q.** And the IC50 [2]?
**A.** The IC50 was 0.0034 µM.

**Q.** What about the EC50 (CMV; Human betaherpesvirus 5, 72 h) of the same molecule?
**A.** The EC50 was 0.217 µM.

**Q.** What about the EC50 (HSV1; Human alphaherpesvirus 1, 72 h) of the same molecule?
**A.** The EC50 was 0.157 µM.

**Q.** And the EC50 (HSV2; Human alphaherpesvirus 2, 72 h)?
**A.** Its EC50 is 0.165 µM.

**Q.** How did the IC50 [1] turn out when `Cc1nc2cc(C3CC(N)C3)c(O[C@H]3CCN4C(=O)OC[C@@H]4C3)cc2c(=O)n1Cc1ccc(C#N)cc1` (single isomer, unassigned) [Example 83] was run?
**A.** Its IC50 is 0.019 µM.

**Q.** What about the IC50 [2] of the same molecule?
**A.** Its IC50 is 0.02 µM.

**Q.** And the EC50 (CMV; Human betaherpesvirus 5, 72 h)?
**A.** Its EC50 is 4.6 µM.

**Q.** What about the EC50 (HSV1; Human alphaherpesvirus 1, 72 h) of the same molecule?
**A.** Its EC50 is 6.69 µM.

**Q.** What about the EC50 (HSV2; Human alphaherpesvirus 2, 72 h) of the same molecule?
**A.** The EC50 was 21 µM.

**Q.** What does the source list for `Cc1nc2cc(C3CCC3O)c(O[C@H]3CCN4C(=O)OC[C@@H]4C3)cc2c(=O)n1Cc1ccc(C#N)cc1` (single isomer, unassigned) [Example 85]?
**A.** IC50 [1]: 0.01 µM; IC50 [2]: 0.011 µM; EC50 (CMV; Human betaherpesvirus 5, 72 h): 0.338 µM; EC50 (HSV1; Human alphaherpesvirus 1, 72 h): 0.673 µM; EC50 (HSV2; Human alphaherpesvirus 2, 72 h): 0.736 µM

**Q.** What does the source list for `O=C1OC[C@@H]2C[C@@H](Oc3cnc4c(C5CC5)cn(Cc5ccc(Cl)cc5)c(=O)c4c3)CCN12` [Example 1]?
**A.** IC50 [1]: 0.069 µM; IC50 [2]: 0.075 µM; EC50 (CMV; ~72 hrs): 1.04 µM; EC50 (HSV1; ~72 hrs): 2.7 µM; EC50 (HSV2; ~72 hrs): 1.54 µM

**Q.** `O=C1OC[C@@H]2C[C@@H](Oc3cc4c(=O)n(Cc5ccc(Cl)cc5)ccc4cn3)CCN12` [Example 2] was tested. Which IC50 [1] did it give?
**A.** The IC50 was 0.049 µM.

**Q.** And the IC50 [2]?
**A.** Its IC50 is 0.044 µM.

**Q.** And the EC50 (CMV; ~72 hrs)?
**A.** The EC50 was 0.872 µM.

**Q.** And the EC50 (HSV1; ~72 hrs)?
**A.** Its EC50 is 1.7 µM.

**Q.** And the EC50 (HSV2; ~72 hrs)?
**A.** Its EC50 is 1.05 µM.

**Q.** `Cc1nc2cc(CC(C)(C)O)c(O[C@H]3CCN4C(=O)OC[C@@H]4C3)cc2c(=O)n1Cc1ccc(Cl)cc1` [Example 3] was tested. Which IC50 [1] did it give?
**A.** The IC50 was 0.0024 µM.

**Q.** What about the IC50 [2] of the same molecule?
**A.** The IC50 was 0.0005 µM.

**Q.** What about the EC50 (CMV; ~72 hrs) of the same molecule?
**A.** Its EC50 is 0.037 µM.

**Q.** And the EC50 (HSV1; ~72 hrs)?
**A.** Its EC50 is 0.075 µM.

**Q.** And the EC50 (HSV2; ~72 hrs)?
**A.** Its EC50 is 0.055 µM.

**Q.** What does the source list for `Cc1nc2cc(-c3cnn(C(F)F)c3)c(O[C@H]3CCN4C(=O)OC[C@@H]4C3)cc2c(=O)n1Cc1ccc(Cl)cc1` [Example 4]?
**A.** IC50 [1]: 0.0011 µM; IC50 [2]: 0.0031 µM; EC50 (CMV; ~72 hrs): 0.051 µM; EC50 (HSV1; ~72 hrs): 0.06 µM; EC50 (HSV2; ~72 hrs): 0.026 µM

**Q.** For `Cc1nc2cc(-c3cnn(C(F)F)c3)c(O[C@H]3CCN4C(=O)OC[C@@H]4C3)cc2c(=O)n1Cc1ccc(C#N)cc1` [Example 6], which IC50 [1] is on record?
**A.** Its IC50 is 0.0018 µM.

**Q.** What about the IC50 [2] of the same molecule?
**A.** The IC50 was 0.005 µM.

**Q.** What about the EC50 (CMV; ~72 hrs) of the same molecule?
**A.** Its EC50 is 0.056 µM.

**Q.** And the EC50 (HSV1; ~72 hrs)?
**A.** The EC50 was 0.047 µM.

**Q.** What about the EC50 (HSV2; ~72 hrs) of the same molecule?
**A.** The EC50 was 0.029 µM.

From patent publication US12497405B2, “Bicyclic heterocycle compounds methods of use thereof for the treatment of herpes viruses” (Merck Sharp & Dohme LLC, priority 2019, dated 2025)
